Key:
Experiment in all cases: relative viability (nuclei count vs DMSO), 5 days (fraction); higher = more cells survive
HCC-827 = system: HCC-827
Method in brief: (§1)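 Relative viability divides the nuclei count in treated wells by that in vehicle wells. Lung cancer cell lines were seeded in 1536-well plates, dosed by pin tool the next day, and fixed and stained after 5 days in one step with final 0.05% Triton X-100, 1% formaldehyde and 1 ug/ml Hoechst. Dosing was a single drug or a fixed anchor-drug dose plus five library-drug doses (not always all listed) in √10 steps, and values are medians of duplicate plates imaged at 4×.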

EMC-BAC-2 = system: EMC-BAC-2
Method in brief: as §1

NCI-H1755 = system: NCI-H1755
Method in brief: as §1

LCLC-97TM1 = system: LCLC-97TM1
Method in brief: as §1

NCI-H661 = system: NCI-H661
Method in brief: as §1

NCI-H1355 = system: NCI-H1355
Method in brief: as §1

HCC-15 = system: HCC-15
Method in brief: as §1

NCI-H1792 = system: NCI-H1792
Method in brief: as §1

RERF-LC-KJ = system: RERF-LC-KJ
Method in brief: as §1

NCI-H1915 = system: NCI-H1915
Method in brief: as §1

UMC-11 = system: UMC-11
Method in brief: as §1

NCI-H838 = system: NCI-H838
Method in brief: as §1

COR-L23 = system: COR-L23
Method in brief: as §1

NCI-H520 = system: NCI-H520
Method in brief: as §1

HARA = system: HARA
Method in brief: as §1

NCI-H3122 = system: NCI-H3122
Method in brief: as §1

SW 1573 = system: SW 1573
Method in brief: as §1

LC-2-ad = system: LC-2-ad
Method in brief: as §1

NCI-H2126 = system: NCI-H2126
Method in brief: as §1

EKVX = system: EKVX
Method in brief: as §1

H3255 = system: H3255
Method in brief: as §1

NCI-H2405 = system: NCI-H2405
Method in brief: as §1

NCI-H23 = system: NCI-H23
Method in brief: as §1

## Nc1cccc2c1CN(C1CCC(=O)NC1=O)C2=O (stereo not given) [Lenalidomide] + C[C@@H](Oc1cc(-c2cnn(C3CCNCC3)c2)cnc1N)c1c(Cl)ccc(F)c1Cl [Crizotinib] (partner 1 µM)
HCC-827; first compound 0.253 µM
  relative viability: 1.02
HCC-827; first compound 0.8 µM
  relative viability: 1.02
HCC-827; first compound 2.53 µM
  relative viability: 0.964
HCC-827; first compound 8 µM
  relative viability: 1.06
EMC-BAC-2; first compound 0.253 µM
  relative viability: 0.721
EMC-BAC-2; first compound 0.8 µM
  relative viability: 0.679
EMC-BAC-2; first compound 2.53 µM
  relative viability: 0.815
EMC-BAC-2; first compound 8 µM
  relative viability: 0.769
NCI-H1755; first compound 0.253 µM
  relative viability: 0.828
NCI-H1755; first compound 0.8 µM
  relative viability: 0.85
NCI-H1755; first compound 2.53 µM
  relative viability: 0.9
NCI-H1755; first compound 8 µM
  relative viability: 0.821
LCLC-97TM1; first compound 0.8 µM
  relative viability: 0.511
LCLC-97TM1; first compound 2.53 µM
  relative viability: 0.463
LCLC-97TM1; first compound 8 µM
  relative viability: 0.305
NCI-H661; first compound 0.253 µM
  relative viability: 0.972
NCI-H661; first compound 0.8 µM
  relative viability: 0.898
NCI-H661; first compound 2.53 µM
  relative viability: 0.905
NCI-H661; first compound 8 µM
  relative viability: 0.973
NCI-H1355; first compound 0.253 µM
  relative viability: 1.04
NCI-H1355; first compound 0.8 µM
  relative viability: 0.956
NCI-H1355; first compound 2.53 µM
  relative viability: 1.26
NCI-H1355; first compound 8 µM
  relative viability: 0.923
HCC-15; first compound 0.253 µM
  relative viability: 0.809
HCC-15; first compound 2.53 µM
  relative viability: 1.03
HCC-15; first compound 8 µM
  relative viability: 0.799
NCI-H1792; first compound 0.253 µM
  relative viability: 1.04
NCI-H1792; first compound 0.8 µM
  relative viability: 0.795
NCI-H1792; first compound 2.53 µM
  relative viability: 1.12
NCI-H1792; first compound 8 µM
  relative viability: 0.96
RERF-LC-KJ; first compound 0.253 µM
  relative viability: 0.8
RERF-LC-KJ; first compound 0.8 µM
  relative viability: 0.778
RERF-LC-KJ; first compound 2.53 µM
  relative viability: 0.827
RERF-LC-KJ; first compound 8 µM
  relative viability: 0.835
NCI-H1915; first compound 0.253 µM
  relative viability: 0.906
NCI-H1915; first compound 0.8 µM
  relative viability: 0.88
NCI-H1915; first compound 2.53 µM
  relative viability: 0.978
NCI-H1915; first compound 8 µM
  relative viability: 0.952
UMC-11; first compound 0.253 µM
  relative viability: 0.61
UMC-11; first compound 0.8 µM
  relative viability: 0.573
UMC-11; first compound 2.53 µM
  relative viability: 0.601
UMC-11; first compound 8 µM
  relative viability: 0.644
NCI-H838; first compound 0.253 µM
  relative viability: 0.847
NCI-H838; first compound 0.8 µM
  relative viability: 0.954
NCI-H838; first compound 2.53 µM
  relative viability: 0.914
NCI-H838; first compound 8 µM
  relative viability: 0.913
COR-L23; first compound 0.253 µM
  relative viability: 0.656
COR-L23; first compound 0.8 µM
  relative viability: 0.634
COR-L23; first compound 2.53 µM
  relative viability: 0.718
COR-L23; first compound 8 µM
  relative viability: 0.82
NCI-H520; first compound 0.253 µM
  relative viability: 0.794
NCI-H520; first compound 0.8 µM
  relative viability: 0.777
NCI-H520; first compound 2.53 µM
  relative viability: 0.857
NCI-H520; first compound 8 µM
  relative viability: 0.752
HARA; first compound 0.253 µM
  relative viability: 1.02
HARA; first compound 0.8 µM
  relative viability: 1.05
HARA; first compound 2.53 µM
  relative viability: 1.2
HARA; first compound 8 µM
  relative viability: 1.13
NCI-H3122; first compound 0.253 µM
  relative viability: 0.261
NCI-H3122; first compound 0.8 µM
  relative viability: 0.286
NCI-H3122; first compound 2.53 µM
  relative viability: 0.261
NCI-H3122; first compound 8 µM
  relative viability: 0.258
SW 1573; first compound 0.253 µM
  relative viability: 0.801
SW 1573; first compound 0.8 µM
  relative viability: 0.844
SW 1573; first compound 2.53 µM
  relative viability: 0.766
SW 1573; first compound 8 µM
  relative viability: 0.772
LC-2-ad; first compound 0.253 µM
  relative viability: 0.516
LC-2-ad; first compound 0.8 µM
  relative viability: 0.43
LC-2-ad; first compound 2.53 µM
  relative viability: 0.547
LC-2-ad; first compound 8 µM
  relative viability: 0.511
NCI-H2126; first compound 0.253 µM
  relative viability: 1.02
NCI-H2126; first compound 0.8 µM
  relative viability: 1.02
NCI-H2126; first compound 2.53 µM
  relative viability: 1.08
NCI-H2126; first compound 8 µM
  relative viability: 0.993
EKVX; first compound 0.253 µM
  relative viability: 0.978
EKVX; first compound 0.8 µM
  relative viability: 1.05
EKVX; first compound 2.53 µM
  relative viability: 1.09
EKVX; first compound 8 µM
  relative viability: 0.998
H3255; first compound 0.253 µM
  relative viability: 0.79
H3255; first compound 0.8 µM
  relative viability: 0.885
H3255; first compound 2.53 µM
  relative viability: 0.872
H3255; first compound 8 µM
  relative viability: 0.946
NCI-H2405; first compound 0.253 µM
  relative viability: 0.819
NCI-H2405; first compound 0.8 µM
  relative viability: 0.858
NCI-H2405; first compound 2.53 µM
  relative viability: 0.897
NCI-H2405; first compound 8 µM
  relative viability: 0.791
NCI-H23; first compound 0.253 µM
  relative viability: 0.521
NCI-H23; first compound 0.8 µM
  relative viability: 0.439
NCI-H23; first compound 2.53 µM
  relative viability: 0.605
NCI-H23; first compound 8 µM
  relative viability: 0.62

— the supplement of paper PMC10307832
